Results published in patent US11492345B2, “Compounds and their methods of use” (Praxis Precision Medicines, Inc., priority 2017, dated 2022).

target: T1, human Nav1.6 (hNav1.6) (Homo sapiens, UniProt Q9UQD0); test: Modulation of late sodium current (INaL), PatchXpress electrophysiology; type: cell-based; details: HEK293; 1 μM compound; HEK-293 cells expressing recombinant human Nav channel; late current evoked by 300 nM ATX-II; steady-state inhibition; read-out: INaL v1.6 (1 μM, % Inhibition)
T1 construct: expressed in transfected cells; host or cells: HEK-293 (G418 selection)
Experimental: Functional characterization of exemplary compounds to modulate INaL expressed by the Nav1.6 voltage-gated sodium channel was accomplished using the PatchXpress™ high throughput electrophysiology platform (Molecular Devices, Sunnyvale, Calif.). HEK-293 cells expressing recombinant, human Nav1.6 (hNav1.6) were grown in DMEM/high-glucose Dulbecco's modified, 10% FBS, 2 mM sodium pyruvate, 10 mM HEPES and 400 μg/mL G418. Cells were grown to 50%-80% confluency prior to harvesting. Trypsinized cells were washed, allowed to recover for 1 hour and then resuspended in extracellular recording solution at a concentration of 1×10^6 cells/ml. The onboard liquid handling facility of the PatchXpress was used for dispensing cells and applying test compounds. Nav late currents were evoked by the application of 300 nM ATX-II. INaL was evoked by depolarizing pulses to 0 mV for 200 ms from a non-inactivating holding potential (e.g., −120 mV) at a frequency of 0.1 Hz. INaL amplitude and stability were determined by analyzing the mean current amplitude over the final 20 ms of the test pulse. […] Percent steady-state inhibition of INaL was calculated as: [(INaL_compound)/(INaL_control)]*100, where INaL_compound and INaL_control represent INaL recorded in the presence or absence of compound, respectively.

T1 sequence (Q9UQD0 whole entry): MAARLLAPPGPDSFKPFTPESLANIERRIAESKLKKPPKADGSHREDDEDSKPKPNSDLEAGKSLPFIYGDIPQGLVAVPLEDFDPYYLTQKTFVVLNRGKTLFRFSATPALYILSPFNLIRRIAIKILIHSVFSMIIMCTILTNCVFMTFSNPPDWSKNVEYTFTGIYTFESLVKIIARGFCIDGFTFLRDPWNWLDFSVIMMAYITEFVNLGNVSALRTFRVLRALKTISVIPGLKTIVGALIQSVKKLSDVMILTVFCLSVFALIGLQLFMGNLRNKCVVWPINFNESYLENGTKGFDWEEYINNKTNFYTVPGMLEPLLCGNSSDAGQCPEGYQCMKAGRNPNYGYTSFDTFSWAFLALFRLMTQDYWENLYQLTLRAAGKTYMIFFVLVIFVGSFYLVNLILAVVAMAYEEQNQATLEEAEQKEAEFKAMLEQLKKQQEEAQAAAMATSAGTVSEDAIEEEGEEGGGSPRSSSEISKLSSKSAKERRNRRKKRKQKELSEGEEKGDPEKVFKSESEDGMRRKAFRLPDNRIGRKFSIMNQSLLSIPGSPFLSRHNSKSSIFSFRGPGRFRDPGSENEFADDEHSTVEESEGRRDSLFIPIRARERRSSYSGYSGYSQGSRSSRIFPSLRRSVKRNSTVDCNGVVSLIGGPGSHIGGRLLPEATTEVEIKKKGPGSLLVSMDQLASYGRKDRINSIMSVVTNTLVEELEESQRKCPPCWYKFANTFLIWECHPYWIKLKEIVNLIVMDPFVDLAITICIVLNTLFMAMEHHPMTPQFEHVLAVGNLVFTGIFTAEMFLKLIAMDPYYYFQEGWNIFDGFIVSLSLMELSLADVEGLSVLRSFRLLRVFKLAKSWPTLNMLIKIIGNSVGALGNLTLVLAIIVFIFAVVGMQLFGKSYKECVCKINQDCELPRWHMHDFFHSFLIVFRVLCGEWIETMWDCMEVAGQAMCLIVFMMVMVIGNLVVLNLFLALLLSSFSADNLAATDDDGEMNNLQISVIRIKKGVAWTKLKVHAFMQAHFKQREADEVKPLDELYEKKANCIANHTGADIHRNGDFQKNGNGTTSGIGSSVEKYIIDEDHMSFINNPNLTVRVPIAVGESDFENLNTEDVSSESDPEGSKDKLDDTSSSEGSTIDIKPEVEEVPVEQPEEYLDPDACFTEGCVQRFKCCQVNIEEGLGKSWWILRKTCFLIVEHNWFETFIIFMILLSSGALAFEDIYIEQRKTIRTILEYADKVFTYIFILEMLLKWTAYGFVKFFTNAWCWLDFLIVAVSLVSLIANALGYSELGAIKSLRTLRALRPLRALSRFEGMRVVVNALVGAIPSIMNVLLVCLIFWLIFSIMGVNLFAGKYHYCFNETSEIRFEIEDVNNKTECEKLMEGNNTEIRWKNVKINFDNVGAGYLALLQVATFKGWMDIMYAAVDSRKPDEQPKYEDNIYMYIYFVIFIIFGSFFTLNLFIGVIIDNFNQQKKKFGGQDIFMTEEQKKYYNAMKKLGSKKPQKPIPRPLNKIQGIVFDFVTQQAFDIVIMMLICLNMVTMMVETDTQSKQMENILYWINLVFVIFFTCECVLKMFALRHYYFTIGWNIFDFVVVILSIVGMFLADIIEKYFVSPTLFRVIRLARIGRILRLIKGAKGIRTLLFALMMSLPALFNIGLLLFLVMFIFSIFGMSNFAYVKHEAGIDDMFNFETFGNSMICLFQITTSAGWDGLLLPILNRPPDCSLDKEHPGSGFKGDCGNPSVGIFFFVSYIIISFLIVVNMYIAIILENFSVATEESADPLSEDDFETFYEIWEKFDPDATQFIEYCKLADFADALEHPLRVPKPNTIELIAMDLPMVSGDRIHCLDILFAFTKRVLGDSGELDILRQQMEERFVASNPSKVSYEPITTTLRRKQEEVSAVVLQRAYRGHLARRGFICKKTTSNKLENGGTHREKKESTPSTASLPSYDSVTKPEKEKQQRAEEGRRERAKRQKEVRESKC

`O=c1oc2ccc(-c3ccc(OC(F)(F)F)cc3)nc2n1C[C@H]1CCCCO1` (single isomer, unassigned) [Compound 54] and `O=c1oc2ccc(-c3ccc(OC(F)(F)F)cc3)nc2n1C[C@@H]1CCCCO1` (single isomer, unassigned) [Compound 55] fall in the same range of inhibition at 1 µM: 30 to 70% for the first, 30 to 70% for the second.

First: O=c1oc2ccc(-c3ccc(OC(F)(F)F)cc3)cc2n1C[C@@H]1CCCCO1 (single isomer, unassigned) [Compound 58]
Second: O=c1oc2ccc(-c3ccc(OC(F)(F)F)cc3)cc2n1C[C@H]1CCCCO1 (single isomer, unassigned) [Compound 59]
The inhibition at 1 µM of the first is higher: > 70% for the first, 30 to 70% for the second.

`O=c1oc2ccc(-c3ccc(OC(F)(F)F)cc3)nc2n1C[C@@H]1CCOC1` (single isomer, unassigned) [Compound 61] and `O=c1oc2ccc(-c3ccc(OC(F)(F)F)cc3)nc2n1C[C@H]1CCOC1` (single isomer, unassigned) [Compound 62] cannot be ordered by inhibition at 1 µM: > 70% for the first, > 70% for the second.

First: O=c1oc2ccc(-c3ccc(OC(F)(F)F)cc3)nc2n1C[C@@H]1CCCO1 (single isomer, unassigned) [Compound 64]
Second: O=c1oc2ccc(-c3ccc(OC(F)(F)F)cc3)nc2n1C[C@H]1CCCO1 (single isomer, unassigned) [Compound 65]
The inhibition at 1 µM of the first is higher: > 70% for the first, 30 to 70% for the second.

`O=c1oc2ccc(-c3ccc(OC(F)(F)F)cc3)nc2n1C[C@H]1CCCOC1` (single isomer, unassigned) [Compound 66] and `O=c1oc2ccc(-c3ccc(OC(F)(F)F)cc3)nc2n1C[C@@H]1CCCOC1` (single isomer, unassigned) [Compound 67] cannot be ordered by inhibition at 1 µM: > 70% for the first, > 70% for the second.

First: O=c1oc2ccc(-c3ccc(OC(F)(F)F)cc3)cc2n1C[C@@H]1CCOC1 (single isomer, unassigned) [Compound 69]
Second: O=c1oc2ccc(-c3ccc(OC(F)(F)F)cc3)cc2n1C[C@H]1CCOC1 (single isomer, unassigned) [Compound 70]
The inhibition at 1 µM of the first is higher: > 70% for the first, 30 to 70% for the second.

`O=c1oc2ccc(-c3ccc(OC(F)(F)F)cc3)cc2n1C[C@H]1CCCOC1` (single isomer, unassigned) [Compound 73] and `O=c1oc2ccc(-c3ccc(OC(F)(F)F)cc3)cc2n1CC1CCCOC1` (stereo not shown) [Compound 72] cannot be ordered by inhibition at 1 µM: > 70% for the first, > 70% for the second.

`C[C@H](O)CCn1c(=O)oc2ccc(-c3ccc(OC(F)(F)F)cc3)nc21` (single isomer, unassigned) [Compound 99] and `C[C@@H](O)CCn1c(=O)oc2ccc(-c3ccc(OC(F)(F)F)cc3)nc21` (single isomer, unassigned) [Compound 100] cannot be ordered by inhibition at 1 µM: > 70% for the first, > 70% for the second.

Compared with `O=c1oc2ccc(-c3ccc(OC(F)(F)F)cc3)nc2n1C[C@H]1CC1(F)F` (single isomer, unassigned) [Compound 106], `O=c1oc2ccc(-c3ccc(OC(F)(F)F)cc3)nc2n1C[C@@H]1CC1(F)F` (single isomer, unassigned) [Compound 107] is lower in inhibition at 1 µM: > 70% for the first, 30 to 70% for the second.

`COC[C@@H]1CCN(C(=O)Cn2c(=O)oc3ccc(-c4ccc(OC(F)(F)F)cc4)cc32)C1` (single isomer, unassigned) [Compound 138] and `COC[C@H]1CCN(C(=O)Cn2c(=O)oc3ccc(-c4ccc(OC(F)(F)F)cc4)cc32)C1` (single isomer, unassigned) [Compound 139] fall in the same range of inhibition at 1 µM: 30 to 70% for the first, 30 to 70% for the second.

First: C[C@H](Cn1c(=O)oc2ccc(-c3ccc(OC(F)(F)F)cc3)nc21)c1ncccn1 (single isomer, unassigned) [Compound 149]
Second: C[C@@H](Cn1c(=O)oc2ccc(-c3ccc(OC(F)(F)F)cc3)nc21)c1ncccn1 (single isomer, unassigned) [Compound 150]
The inhibition at 1 µM of the first is higher: > 70% for the first, 30 to 70% for the second.

Compared with `O=c1oc2ccc(-c3ccc(OC(F)(F)F)cc3)cc2n1CC(F)(F)F` [Compound 2], `CCn1c(=O)oc2ccc(-c3ccc(OC(F)(F)F)cc3)cc21` [Compound 11] is higher in inhibition at 1 µM: 30 to 70% for the first, > 70% for the second.

First: Cc1nnc(CCn2c(=O)oc3ccc(-c4ccc(OC(F)(F)F)cc4)cc32)o1 [Compound 3]
Second: Cc1nnc(Cn2c(=O)oc3ccc(-c4ccc(OC(F)(F)F)cc4)cc32)o1 [Compound 51]
The inhibition at 1 µM of the first is higher: > 70% for the first, 30 to 70% for the second.

First: O=C1Cc2ccc(-c3ccc(OC(F)(F)F)cc3)cc2N1CC(F)(F)F [Compound 4]
Second: Cn1c(=O)n(CC(F)(F)F)c2cc(-c3ccc(OC(F)(F)F)cc3)ccc21 [Compound 32]
The inhibition at 1 µM of the first is higher: > 70% for the first, 30 to 70% for the second.

`O=c1[nH]c2cc(-c3ccc(OC(F)(F)F)cc3)ccc2o1` [Compound 5, 5-[4-(trifluoromethoxy)phenyl]-3H-1,3-benzoxazol-2-one] and `Cn1c(=O)oc2ccc(-c3ccc(OC(F)(F)F)cc3)cc21` [Compound 10] cannot be ordered by inhibition at 1 µM: > 70% for the first, > 70% for the second.

Compared with `O=c1oc2ccc(-c3ccc(OCC(F)(F)F)nc3)cc2n1CC(F)(F)F` [Compound 6], `O=c1oc2ncc(-c3ccc(OC(F)(F)F)cc3)cc2n1CC(F)(F)F` [Compound 22] is lower in inhibition at 1 µM: 30 to 70% for the first, < 30% for the second.

`COCc1cc(OC(F)(F)F)ccc1-c1ccc2oc(=O)n(CC(F)(F)F)c2c1` [Compound 7] and `O=c1oc2ccc(-c3ccc(OC(F)(F)F)cc3)nc2n1CC(F)(F)F` [Compound 33] cannot be ordered by inhibition at 1 µM: > 70% for the first, > 70% for the second.

`COCCn1c(=O)oc2ccc(-c3ccc(OC(F)(F)F)cc3)cc21` [Compound 9] and `COCCCn1c(=O)oc2ccc(-c3ccc(OC(F)(F)F)cc3)cc21` [Compound 15] cannot be ordered by inhibition at 1 µM: < 30% for the first, < 30% for the second.

`O=c1oc2ccc(-c3ccc(OC(F)(F)F)cc3)cc2n1CC1CC1` [Compound 12] and `O=c1oc2ccc(-c3ccc(OC(F)(F)F)cc3)cc2n1CCC1CC1` [Compound 19] cannot be ordered by inhibition at 1 µM: > 70% for the first, > 70% for the second.

`O=C(O)Cn1c(=O)oc2ccc(-c3ccc(OC(F)(F)F)cc3)cc21` [Compound 16, 2-[2-oxo-5-[4-(trifluoromethoxy)phenyl]-1,3-benzoxazol-3-yl]acetic acid] and `NC(=O)Cn1c(=O)oc2ccc(-c3ccc(OC(F)(F)F)cc3)cc21` [Compound 42] cannot be ordered by inhibition at 1 µM: < 30% for the first, < 30% for the second.

First: O=C(Cn1c(=O)oc2ccc(-c3ccc(OC(F)(F)F)cc3)cc21)N1CCCC1 [Compound 17]
Second: O=C(CCn1c(=O)oc2ccc(-c3ccc(OC(F)(F)F)cc3)cc21)N1CCCC1 [Compound 26]
The inhibition at 1 µM of the first is lower: 30 to 70% for the first, > 70% for the second.

`O=c1[nH]c2cc(-c3ccc(OCC(F)(F)F)nc3)ccc2o1` [Compound 20] and `O=c1[nH]c2cc(-c3ccc(OC(F)(F)F)cc3)cnc2o1` [Compound 37] fall in the same range of inhibition at 1 µM: 30 to 70% for the first, 30 to 70% for the second.

First: Cc1nnc(CCN2C(=O)Cc3ccc(-c4ccc(OC(F)(F)F)cc4)cc32)o1 [Compound 21]
Second: O=C(O)CCn1c(=O)oc2ccc(-c3ccc(OC(F)(F)F)cc3)cc21 [Compound 24]
The inhibition at 1 µM of the first is higher: 30 to 70% for the first, < 30% for the second.

`CCN(CC)C(=O)CCn1c(=O)oc2ccc(-c3ccc(OC(F)(F)F)cc3)cc21` [Compound 28] and `CCN(CC)C(=O)Cn1c(=O)oc2ccc(-c3ccc(OC(F)(F)F)cc3)cc21` [Compound 39] cannot be ordered by inhibition at 1 µM: > 70% for the first, > 70% for the second.

First: O=c1[nH]c2nc(-c3ccc(OC(F)(F)F)cc3)ccc2o1 [Compound 29, 5-[4-(trifluoromethoxy)phenyl]-3H-oxazolo[4,5-b]pyridin-2-one]
Second: Cn1c(=O)oc2ccc(-c3ccc(OC(F)(F)F)cc3)nc21 [Compound 75]
The inhibition at 1 µM of the first is lower: < 30% for the first, > 70% for the second.

`O=C1CCCN1CCCn1c(=O)oc2ccc(-c3ccc(OC(F)(F)F)cc3)cc21` [Compound 30] and `O=C1OCCN1CCCn1c(=O)oc2ccc(-c3ccc(OC(F)(F)F)cc3)cc21` [Compound 31] fall in the same range of inhibition at 1 µM: 30 to 70% for the first, 30 to 70% for the second.

First: O=c1oc2ncc(-c3ccc(OC(F)(F)F)cc3)cc2n1Cc1ccccc1 [Compound 34]
Second: O=c1oc2ncc(-c3ccc(OC(F)(F)F)cc3)cc2n1Cc1ncccn1 [Compound 49]
The inhibition at 1 µM of the first is higher: 30 to 70% for the first, < 30% for the second.

First: O=C(Cn1c(=O)oc2ccc(-c3ccc(OC(F)(F)F)cc3)cc21)N1CCOCC1 [Compound 40]
Second: O=c1oc2ccc(-c3ccc(OC(F)(F)F)cc3)cc2n1CC1CCOCC1 [Compound 56]
The inhibition at 1 µM of the first is lower: 30 to 70% for the first, > 70% for the second.

First: CNC(=O)Cn1c(=O)oc2ccc(-c3ccc(OC(F)(F)F)cc3)cc21 [Compound 41]
Second: O=c1oc2ccc(-c3ccc(OC(F)(F)F)cc3)cc2n1CC1CCOC1 (stereo not shown) [Compound 68]
The inhibition at 1 µM of the first is lower: < 30% for the first, > 70% for the second.

Going from `Cn1c(=O)oc2ncc(-c3ccc(OC(F)(F)F)cc3)cc21` [Compound 43] to `CCn1c(=O)oc2ccc(-c3ccc(OC(F)(F)F)cc3)nc21` [Compound 76], the inhibition at 1 µM rises from < 30% to > 70%.

First: CC(C(=O)N1CCCC1)n1c(=O)oc2ccc(-c3ccc(OC(F)(F)F)cc3)cc21 (stereo not shown) [Compound 45]
Second: O=c1oc2ccc(-c3ccc(OC(F)(F)F)cc3)cc2n1CC1CCCCO1 (stereo not shown) [Compound 57]
The inhibition at 1 µM of the first is lower: < 30% for the first, > 70% for the second.

First: O=c1oc2ccc(-c3ccc(OC(F)(F)F)cc3)cc2n1Cc1ncccn1 [Compound 50]
Second: CCn1c(=O)oc2ccc(-c3cnc(OCC(F)(F)F)c(F)c3)nc21 [Compound 71]
The inhibition at 1 µM of the first is higher: 30 to 70% for the first, < 30% for the second.
